Key:
JAK-2 enzyme = JAK-2 enzyme (Homo sapiens, UniProt O60674); assay: JAK2 Inhibition Assay; assay type: biochemical; conditions: 15 μM poly(Glu)4Tyr, 12 μM ATP, 25° C.
Protocol: (§1) Compounds were screened for their ability to inhibit JAK3 using the assay shown below. Reactions were carried out in a kinase buffer containing 100 mM HEPES (pH 7.4), 1 mM DTT, 10 mM MgCl2, 25 mM NaCl, and 0.01% BSA. Substrate concentrations in the assay were 5 μM ATP (200 uCi/μmole ATP) and 1 μM poly(Glu)4Tyr. Reactions were carried out at 25° C. and 1 nM JAK3.
(§2) To each well of a 96 well polycarbonate plate was added 1.5 μl of a candidate JAK3 inhibitor along with 50 μl of kinase buffer containing 2 μM poly(Glu)4Tyr and […]. This was then mixed and […] of kinase buffer containing 2 nM JAK3 enzyme was added to start the reaction. After 20 minutes at room temperature (25° C.), the reaction was stopped with 50 μl of 20% trichloroacetic acid (TCA) that also contained 0.4 mM ATP. The entire contents of each well were then transferred to a 96 well glass fiber filter plate using a TomTek Cell Harvester. After washing, 60 μl of scintillation fluid was added and ^33P incorporation detected on a Perkin Elmer TopCount.
The assays were as described above in Example 36 except that JAK-2 enzyme was used, the final poly(Glu)4Tyr concentration was 15 μM, and final ATP concentration was 12 μM.
(§3) Tables 5 and 6 depict enzyme inhibition data (Ki) for certain exemplary compounds. Compound numbers in Tables 5 and 6 correspond to those compounds depicted in Tables 1 and 2, respectively.

JAK3 = biological target: T1, JAK3 (Homo sapiens, UniProt P52333); assay: JAK3 Inhibition Assay; assay type: biochemical; conditions: 1 μM poly(Glu)4Tyr, 5 μM ATP, 1 nM JAK3, 25° C.; read-out: JAK3 enzyme inhibition data (Ki)
T1 sequence (P52333 1-1124): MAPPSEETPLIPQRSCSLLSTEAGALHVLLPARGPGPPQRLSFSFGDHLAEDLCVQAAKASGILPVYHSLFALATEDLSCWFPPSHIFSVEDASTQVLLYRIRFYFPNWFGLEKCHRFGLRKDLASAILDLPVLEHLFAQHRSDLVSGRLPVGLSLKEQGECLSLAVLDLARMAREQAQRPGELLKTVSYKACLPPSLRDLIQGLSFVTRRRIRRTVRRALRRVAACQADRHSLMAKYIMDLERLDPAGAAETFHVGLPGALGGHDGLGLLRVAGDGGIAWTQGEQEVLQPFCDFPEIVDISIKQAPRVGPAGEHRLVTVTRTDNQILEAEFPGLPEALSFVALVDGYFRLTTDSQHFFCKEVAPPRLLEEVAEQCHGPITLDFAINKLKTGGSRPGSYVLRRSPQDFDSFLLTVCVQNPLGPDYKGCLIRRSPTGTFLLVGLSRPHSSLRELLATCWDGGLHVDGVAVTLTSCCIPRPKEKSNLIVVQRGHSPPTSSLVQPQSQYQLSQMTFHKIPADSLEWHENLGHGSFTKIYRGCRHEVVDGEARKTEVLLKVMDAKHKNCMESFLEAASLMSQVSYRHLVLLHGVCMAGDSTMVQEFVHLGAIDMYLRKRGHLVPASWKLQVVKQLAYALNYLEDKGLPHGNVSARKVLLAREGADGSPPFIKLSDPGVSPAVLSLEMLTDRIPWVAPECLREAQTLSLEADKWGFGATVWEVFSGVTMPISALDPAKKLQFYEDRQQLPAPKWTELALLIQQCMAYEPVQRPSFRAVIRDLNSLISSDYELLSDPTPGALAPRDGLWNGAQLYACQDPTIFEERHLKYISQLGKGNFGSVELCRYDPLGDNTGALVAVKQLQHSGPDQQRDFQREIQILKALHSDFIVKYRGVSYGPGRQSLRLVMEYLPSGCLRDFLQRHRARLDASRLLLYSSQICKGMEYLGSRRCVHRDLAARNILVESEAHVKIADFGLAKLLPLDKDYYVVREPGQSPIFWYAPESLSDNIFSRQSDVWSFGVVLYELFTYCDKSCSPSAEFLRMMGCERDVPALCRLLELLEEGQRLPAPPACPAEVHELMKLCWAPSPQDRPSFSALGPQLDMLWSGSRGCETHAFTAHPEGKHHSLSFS
Protocol: as §1, §2, §3

Chain of JAK-2 enzyme (O60674 whole entry, species assumed): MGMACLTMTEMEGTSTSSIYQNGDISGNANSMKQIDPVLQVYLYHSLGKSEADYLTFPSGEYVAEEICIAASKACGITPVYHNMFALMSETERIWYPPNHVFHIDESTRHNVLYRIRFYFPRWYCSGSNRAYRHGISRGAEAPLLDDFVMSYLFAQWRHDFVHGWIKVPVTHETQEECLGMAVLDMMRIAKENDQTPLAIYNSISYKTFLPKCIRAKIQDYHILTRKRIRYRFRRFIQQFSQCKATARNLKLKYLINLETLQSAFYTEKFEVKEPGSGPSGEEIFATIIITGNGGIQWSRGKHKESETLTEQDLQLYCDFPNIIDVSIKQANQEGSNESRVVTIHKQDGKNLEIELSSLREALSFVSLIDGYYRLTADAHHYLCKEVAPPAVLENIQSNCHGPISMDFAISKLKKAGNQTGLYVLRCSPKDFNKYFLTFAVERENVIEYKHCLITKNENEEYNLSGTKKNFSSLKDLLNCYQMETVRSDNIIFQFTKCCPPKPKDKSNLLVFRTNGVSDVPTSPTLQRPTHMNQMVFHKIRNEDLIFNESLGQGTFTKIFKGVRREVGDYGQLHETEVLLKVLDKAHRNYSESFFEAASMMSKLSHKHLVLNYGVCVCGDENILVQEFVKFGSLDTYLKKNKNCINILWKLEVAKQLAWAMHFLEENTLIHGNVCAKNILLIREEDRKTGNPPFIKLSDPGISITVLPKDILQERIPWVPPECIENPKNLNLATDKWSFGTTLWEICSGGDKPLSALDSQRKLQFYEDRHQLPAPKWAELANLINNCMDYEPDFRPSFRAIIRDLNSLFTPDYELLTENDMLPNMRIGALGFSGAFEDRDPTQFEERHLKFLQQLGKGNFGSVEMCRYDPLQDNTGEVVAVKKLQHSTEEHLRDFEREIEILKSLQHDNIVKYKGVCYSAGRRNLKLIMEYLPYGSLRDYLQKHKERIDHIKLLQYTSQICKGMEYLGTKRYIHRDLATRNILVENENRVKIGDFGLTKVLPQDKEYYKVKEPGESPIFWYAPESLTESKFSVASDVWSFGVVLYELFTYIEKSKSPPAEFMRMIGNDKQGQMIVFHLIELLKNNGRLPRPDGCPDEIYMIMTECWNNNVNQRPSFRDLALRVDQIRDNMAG

| SMILES | Ki (JAK-2 enzyme) [nM] | Ki (JAK3) [nM] |
| --- | --- | --- |
| O=C(O)CCC(=O)Nc1nc(-c2ncnc3[nH]ccc23)cs1 [Compound 146] | 100 to 500 | 100 to 500 |
| CCC(CC)NC(=O)c1cc(-c2ncnc3[nH]ccc23)c[nH]1 [Compound 11] | < 100 | 100 to 500 |
| NC(=O)C1CCCN1C(=O)c1ccc(-c2ncnc3[nH]ccc23)o1 (stereo not drawn) [Compound 221] | 500 to 5000 | 500 to 5000 |
| Cn1cc(-c2ncnc3[nH]ccc23)cc1C(=O)N(CCC(F)(F)F)CC1CCC1 [Compound 223] | < 100 | < 100 |
| c1cc(-c2ncnc3[nH]ccc23)[nH]n1 [Compound 4] | 500 to 5000 | 100 to 500 |
| O=C(c1cc(-c2ncnc3[nH]cc(Cl)c23)c[nH]1)N(CCC(F)(F)F)CC1CC1 [Compound 227] | < 100 | < 100 |
| O=C(c1ccc(-c2ncnc3[nH]ccc23)o1)N(CCC(F)(F)F)Cc1ccccc1 [Compound 123] | < 100 | < 100 |
| CC(C)CN(CCC#N)C(=O)c1cc(-c2ncnc3[nH]ccc23)c[nH]1 [Compound 187] | < 100 | < 100 |
| CCCC(CC)n1cc(-c2ncnc3[nH]ccc23)cn1 (stereo not drawn) [Compound 94, 4-(1-(hexan-3-yl)-1H-pyrazol-4-yl)-7H-pyrrolo[2,3-d]pyrimidine] | < 100 | < 100 |
| CC1CC[C@@H](C)N1C(=O)c1coc(-c2ncnc3[nH]ccc23)c1 (stereo partly drawn) [Compound 197] | < 100 | 500 to 5000 |
| O=C(CCC1CC1)Nc1nc(-c2ncnc3[nH]ccc23)cs1 [Compound 96] | < 100 | < 100 |
| CCCCC(C)n1cc(-c2ncnc3[nH]ccc23)cn1 (stereo not drawn) [Compound 93] | < 100 | < 100 |
| FC(F)(F)CCCn1cc(-c2ncnc3[nH]ccc23)cn1 [Compound 6] | < 100 | 100 to 500 |
| CCOC(=O)C1CCN(C(=O)c2cc(-c3ncnc4[nH]ccc34)c[nH]2)CC1 [Compound 43] | 500 to 5000 | 500 to 5000 |
| O=C(Nc1nc(-c2ncnc3[nH]ccc23)cs1)C1CCC1 [Compound 57] | < 100 | < 100 |
| Nc1[nH]ncc1-c1ncnc2[nH]ccc12 [Compound 130] | 100 to 500 | 100 to 500 |
| NC(=O)C1CCCN1C(=O)c1cc(-c2ncnc3[nH]ccc23)c[nH]1 (stereo not drawn) [Compound 47] | 100 to 500 | 100 to 500 |
| C[C@@H]1CC[C@@H](C)N1C(=O)c1ccc(-c2ncnc3[nH]ccc23)o1 [Compound 126] | < 100 | < 100 |
| O=C(c1ccc(-c2ncnc3[nH]ccc23)o1)N(CCC(F)(F)F)CC1CC1 [Compound 122] | < 100 | < 100 |
| CCCCN(CC#N)C(=O)c1cc(-c2ncnc3[nH]ccc23)c[nH]1 [Compound 19] | < 100 | < 100 |
| COC1CCCC(C(=O)Nc2nc(-c3ncnc4[nH]ccc34)cs2)C1 (stereo not drawn) [Compound 63] | < 100 | 100 to 500 |
| CCCCN(CC)C(=O)c1cc(-c2ncnc3[nH]ccc23)cn1C [Compound 232] | < 100 | 100 to 500 |
| N#CCN(Cc1ccccc1)C(=O)c1ccc(-c2ncnc3[nH]ccc23)o1 [Compound 124] | < 100 | 100 to 500 |
| O=C(c1cc(-c2ncnc3[nH]ccc23)c[nH]1)N1CCC(CO)CC1 [Compound 42] | 100 to 500 | 500 to 5000 |
| O=C(c1ccc(-c2ncnc3[nH]ccc23)o1)N(CCC(F)(F)F)CC1CCC1 [Compound 215] | < 100 | < 100 |
| Cc1c[nH]c2ncnc(-c3cnn(CCC(C)C)c3)c12 [Compound 163] | < 100 | 100 to 500 |
| O=C(c1ccc(-c2ncnc3[nH]ccc23)o1)N(CC1CCCC1)CC(F)(F)F [Compound 191] | < 100 | < 100 |

— patent US20090227607A1, “DEAZAPURINES USEFUL AS INHIBITORS OF JANUS KINASES” (priority 2006, published 2009)
